Results taken from PMC10064817 (Pharmaceutical Biology, 2023).
Read-outs that look alike come from different tables or passages of the source.

Key:
COVID-19 = system: COVID-19; parameters: method as in Jayk Bernal et al. [2021]; settings: ref Jayk Bernal et al. [2021]; cited from earlier work
[1] = type: physicochemical; settings: 12 h
Procedure: The LCMS system was operated using a LCMS-8060 (Shimadzu, Kyoto, Japan) equipped with a C18 reversed phase column, Synergi 4 µm Fusion-RP 80 Å 50 × 2 mm (Phenomenex, Torrance, CA). The column oven was maintained at 40 °C and operated using a mobile phase consisting of 0.2% formic acid in water (solvent A) and 100% methanol (solvent B), with a gradient system (0–0.5 min 10% B, 0.5–1.5 min increase to 90% B, 1.5–2.5 min 90% B, 2.5–3.5 min decrease to 10% B, 3.5–4.5 min 10% B), at a flow rate of 0.5 mL/min, with a 10 μL injection volume. The mass spectrometer was a triple quadrupole with negative mode electrospray ionization (ESI). […] All the operations, acquisition and analysis of data were controlled by LabSolution software version 5.86 (Shimadzu, Japan). The LCMS method was validated for accuracy, precision, recovery and stability according to the guidance on bioanalytical method validation recommended by the FDA (USFDA [2018]).

[2] = dog, in vivo, iv, 1 mg/kg
[3] = system: SARS-CoV-2-infected Vero E6 cells; parameters: method as in Kanjanasirirat et al. [2020]; settings: ref Kanjanasirirat et al. [2020]; cited from earlier work
in vivo = settings: male, beagle, dog
[4] = predicted; ref PubChem [2004]; cited from earlier work
[5] = rat, in vivo, po; cited from earlier work
SARS-CoV-2 infection = system: SARS-CoV-2 infection; parameters: method as in Ansems et al. [2021]; settings: hospitalized patients with SARS-CoV-2 infection; ref Ansems et al. [2021]; cited from earlier work
[6] = system: SARS-CoV-2-infected Calu-3 cells; parameters: method as in Sa-ngiamsuntorn et al. [2021]; settings: ref Sa-ngiamsuntorn et al. [2021]; cited from earlier work

CC(C)C(=O)OC[C@H]1O[C@@H](n2ccc(NO)nc2=O)[C@H](O)[C@@H]1O [molnupiravir]
Reduced rate of hospitalization or death compared to placebo (COVID-19): 30%

COc1cc(O)c(C(=O)[C@@H]2[C@H](CC=C(C)C)C(C)=CC[C@H]2c2ccccc2)c(O)c1 [Panduratin A, panduratin A]
Stability, Accuracy (%RE) ([1]; 10 µg/L): 9.75 %RE
Stability, mean concentration found ([1]; 10 µg/L): 10.98 µg/L
Stability, Accuracy (%RE) ([1]; 150 µg/L): 4.48 %RE
Stability, mean concentration found ([1]; 150 µg/L): 156.72 µg/L
Stability, Accuracy (%RE) ([1]; 600 µg/L): 4.76 %RE
Stability, mean concentration found ([1]; 600 µg/L): 628.57 µg/L
ALT [2]: 44 ± 7 U/L
AST [2]: 24 ± 6 U/L
Alkaline phosphatase [2]: 35 ± 4 U/L
Blood urea nitrogen [2]: 11.9 ± 1.6 mg/dL
Creatinine [2]: 0.6 ± 0.1 mg/dL
Haemoglobin [2]: 14.2 ± 1.3 g/dL
Physical appearance [2]: Normal
Platelet [2]: 241 ± 44 x 10^3/µL
Red blood cell [2]: 6.03 ± 0.66 x 10^6/µL
White blood cell [2]: 7.83 ± 1.09 x 10^3/µL
IC50 [3]: 810 nM
half-life (in vivo): 600 to 900 min
AUC(0-inf) (in vivo; iv, 1 mg/kg): 209 µg·h/mL
AUC(0-t) (in vivo; iv, 1 mg/kg): 181 µg·h/mL
MRT (in vivo; iv, 1 mg/kg): 23.9 ± 3.27 h
Vd (in vivo; iv, 1 mg/kg): 0.1 ± 0.01 L/kg
clearance (in vivo; iv, 1 mg/kg): 0.167 mL/min/kg
concentration at 72 h (in vivo; iv, 1 mg/kg): 100 to 200 ng/mL
half-life (in vivo; iv, 1 mg/kg): 915 min
Cmax (in vivo; iv, 1 mg/kg, Cmax): ~100 µg/mL
Hydrogen bond acceptors [4]: four
Hydrogen bond donors [4]: two
Tissue distribution [5]: distribution of panduratin A to various tissues, including skin, lung, heart, gum, liver, spleen, kidney and brain

CCC(CC)COC(=O)[C@H](C)N[P@](=O)(OC[C@H]1O[C@@](C#N)(c2ccc3c(N)ncnn23)[C@H](O)[C@@H]1O)Oc1ccccc1 [remdesivir, reference compound]
IC50 [3]: 2710 nM
Effect on all-cause mortality at up to day 28 (SARS-CoV-2 infection): little or no effect

C=C1CC[C@@H]2[C@](C)(CO)[C@H](O)CC[C@@]2(C)[C@@H]1C/C=C1/C(=O)OC[C@H]1O [andrographolide]
IC50 [6]: 34 nM
